According to patent US20090175872A1, “Treatment of Conditions Involving Demyelination” (BIOGEN Idec MA Inc., priority 2005, published 2009):
No end group written: not given here. *: point of attachment. Biotin = O=C1N[C@H]2[C@H](CS[C@H]2CCCCC(=O)*)N1

B1: AP-Sp35: human placental alkaline phosphatase with six histidine tag fused to human Sp35 residues 34-532 (protein, listed as Homo sapiens)
chain: TGCPPRCECSAQDRAVLCHRKRFVAVPEGIPTETRLLDLGKNRIKTLNQDEFASFPHLEELELNENIVSAVEPGAFNNLFNLRTLGLRSNRLKLIPLGVFTGLSNLTKLDISENKIVILLDYMFQDLYNLKSLEVGDNDLVYISHRAFSGLNSLEQLTLEKCNLTSIPTEALSHLHGLIVLRLRHLNINAIRDYSFKRLYRLKVLEISHWPYLDTMTPNCLYGLNLTSLSITHCNLTAVPYLAVRHLVYLRFLNLSYNPISTIEGSMLHELLRLQEIQLVGGQLAVVEPYAFRGLNYLRVLNVSGNQLTTLEESVFHSVGNLETLILDSNPLACDCRLLWVFRRRWRLNFNRQQPTCATPEFVQGKEFKDFPDVLLPNYFTCRRARIRDRKAQQVFVDEGHTVQFVCRADGDPPPAILWLSPRKHLVSAKSNGRLTVFPDGTLEVRYAQVQDNGTYLCIAANAGGNDSMPAHLHVRSYSPDWPHQPNKTFAFISNQPGE
modifications: alkaline phosphatase fusion partner
B2: AP-Sp35-LRR: AP-tagged LRR domain of Sp35, amino acids 34-417 of SEQ ID NO:2 (protein, listed as Homo sapiens)
chain: TGCPPRCECSAQDRAVLCHRKRFVAVPEGIPTETRLLDLGKNRIKTLNQDEFASFPHLEELELNENIVSAVEPGAFNNLFNLRTLGLRSNRLKLIPLGVFTGLSNLTKLDISENKIVILLDYMFQDLYNLKSLEVGDNDLVYISHRAFSGLNSLEQLTLEKCNLTSIPTEALSHLHGLIVLRLRHLNINAIRDYSFKRLYRLKVLEISHWPYLDTMTPNCLYGLNLTSLSITHCNLTAVPYLAVRHLVYLRFLNLSYNPISTIEGSMLHELLRLQEIQLVGGQLAVVEPYAFRGLNYLRVLNVSGNQLTTLEESVFHSVGNLETLILDSNPLACDCRLLWVFRRRWRLNFNRQQPTCATPEFVQGKEFKDFPDVLLPNYFTCRR
modifications: AP tag fused
B3: AP-Sp35-Ig: AP-tagged Ig plus stalk domain of Sp35, amino acids 417-532 of SEQ ID NO:2 (protein, listed as Homo sapiens)
chain: RARIRDRKAQQVFVDEGHTVQFVCRADGDPPPAILWLSPRKHLVSAKSNGRLTVFPDGTLEVRYAQVQDNGTYLCIAANAGGNDSMPAHLHVRSYSPDWPHQPNKTFAFISNQPGE
modifications: AP tag fused

Target: T1, human ErbB2 (Homo sapiens, UniProt P04626)
T1 construct: expressed in transfected cells; host or cells: CHO cells, transient transfection with Fugene 6, assayed after 48 hours
Assay: AP-Sp35 binding to ErbB2-transfected CHO cells
Details: FIG. 17A; read-out: EC50 of binding to CHO cells expressing ErbB2
Experimental: ErbB2 is a member of the type I family of transmembrane receptor tyrosine kinases. The family comprises four members: epidermal growth factor receptor (EGFR or ErbB1), ErB2 (HER2 or neu), ErbB3 and ErbB4. Oligodendrocyte differentiation is positively regulated by the ErbB2 receptor tyrosine kinase. To examine the potential interaction between Sp35 and ErB2, an N-terminal AP-tagged human Sp35 protein was tested for binding to human ErbB2-transfected Chinese hamster ovary (CHO) cells.
90% confluent CHO cells were transfected with various combinations of human ErbB2 vector expression plasmid using Fugene 6 reagents (Roche). After 48 hours, the transfected cells were washed with HBH (Hank's balanced salt solution, 1 mg/ml BSA, 20 mM HEPES (pH 7.0)) and incubated for 1.5 hours at 23° C. or […] with 4 μg/ml of AP-Sp35 (human placental alkaline phosphotase (AP) with an N-terminal six histidine tag, fused to the C-terminus of human Sp35 (residues 34-532), as described in Mi et al., Nat. Neurosci. 7:221-228 (2004)) or control AP-protein in HBH. Bound AP-Sp35 was detected directly or following detergent lysis of the cells by ELISA and enzymatic activity was quantified with 4-NPP as described in Mi et al. Nat. Neurosci. 7:221-228 (2004).
In order to identify the Sp35 domain that binds ErbB2, soluble truncated forms of AP-Sp35 were tested for binding. Both the LRR domain of Sp35 (amino acids 34-417 of SEQ ID NO:2) (AP-Sp35-LRR) and the extracellular domain of Sp35 (amino acids 34-532 of SEQ ID NO:2) (AP-Sp35) bound to ErbB2 expressed in CHO cells. […] FIGS. 17B and 17C.

| Molecule | EC50 [nM] |
| --- | --- |
| B1 | 3 |

Same assay, conditions: FIGS. 17B and 17C

| Molecule | binding to ErbB2 expressed in CHO cells |
| --- | --- |
| B1 | bound |
| B2 | bound |
| B3 | no detectable binding |

Tested on: co-cultures of dorsal root ganglion (DRG) neurons and oligodendrocytes
Assay: Myelination in co-cultures of DRG neurons and oligodendrocytes
Format: cell-based, rat
Details: 4-week-old treated co-cultures, anti-MBP antibody
Experimental: The role of Sp35 in myelination was examined in vitro by treating co-cultures of dorsal root ganglion (DRG) neurons and oligodendrocytes with Sp35-Fc and testing for myelination by immunohistochemistry and electron microscopy. For these studies, it was necessary to first generate primary cultures of DRG neurons and of oligodendrocytes.
Female Long Evans rat E14-E17 embryonic dorsal root ganglia were cultured as described by Plant et al., J. Neurosci. 22:6083-91 (2002). Dissected DRGs were plated on poly-L-lysine-coated cover slips (100 μg/ml) for 2 weeks in the presence of fluorodeoxyuridine for days 2-6 and days 8-11 in NLA medium containing 1×B27, 100 ng/ml NGF (Invitrogen).
A2B5^+ oligodendrocytes were prepared as described in Example 1, and were harvested by trypsinization.
For coculture studies, A2B5^+ oligodendrocytes were added to DRG neuron drop cultures in the presence or absence of 10 μg/ml Sp35-Fc. The culture medium (Neurobasal medium supplemented with B27 and 100 ng/ml NGF) was changed, and fresh Sp35-Fc was added to the cells every 3 d. To identify changes in myelination, 2-week-old cultures were stained by immunohistochemical staining (“IHC”) for neurofilaments with anti-βIII-tubulin antibody to identify axons, or anti-MBP antibody to identify oligodendrocytes., and 4-week-old cultures were subjected to SDS-PAGE followed by western blot analyses to quantify the MBP. In selected examples, cells were fixed for electron microscopy studies by adding 2.5% gluteraldehyde directly onto the cover slips. Myelinated axons in the 2-week-old cultures were quantified by counting the number of myelinated internode bundles that were derived from single MBP^+ oligodendrocytes. Samples were analyzed in duplicate. Error bars denote individual determinations. P values in all studies were determined using a one-way analysis of variance. […]
We performed experiments to address the relative contributions to the myelination process of Sp35 in DRG neurons as compared to oligodendrocytes. We infected DRG neurons, oligodendrocytes and co-cultures (prepared as described in Example 5) with the FL-Sp35 and DN-Sp35 lentiviral vectors described in Example 1 and performed immunohistochemical straining for myelinated MBP^+ cells after two weeks. A 2-fold increase in MBP levels in co-cultures where both cells express DN-Sp35 and a 2-fold decrease in MBP levels in co-cultures where both cells express FL-Sp35 was observed (FIG. 10G).

| Molecule | expression of MBP (western blot) |
| --- | --- |
| Ac-CLSPEKVC (also: cyclic, type not given here) | no increase in MBP |
| Ac-CLSPRKHC (Ac-CLSPRKHC-NH2; also: cyclic, type not given here) | increased expression of MBP |
| Biotin-GSGCKHSPLRC (cysteine pairing not given here) | no increase in MBP |
| Biotin-GSGCLSPEKVC (cysteine pairing not given here) | no increase in MBP |
| Biotin-GSGCLSPRKHC (cysteine pairing not given here) | increased expression of MBP |
